Assay results published in patent US20110177950A1, “Imidazole and Triazole Compounds, Their Use and Agents Containing the Same” (priority 2008, published 2011).

Tests used:
Botrytis cinerea = assay: Comparison with the prior art: C1 activity against gray mold pathogen in the microtiter test; assay type: cell-based; conditions: day 7 after inoculation, 405 nm
Phakopsora pachyrhizi = assay: Curative activity against soybean rust (greenhouse, Example G1); assay type: in vivo; conditions: soybean seedlings, curative spray 300 ppm two days after inoculation, assessed after further 10 days; untreated 90% infected
Protocol: The active compounds were prepared separately as a stock solution comprising 25 mg of active compound which was made up to 10 ml using a mixture of acetone and/or DMSO and the emulsifier Uniperol® EL (wetting agent having emulsifying and dispersing action based on ethoxylated alkylphenols) in a volume ratio of solvent/emulsifier of 99/1. The mixture was then made up to 100 ml with water. This stock solution was diluted with the solvent/emulsifier/water mixture described to the active compound concentration stated below. Alternatively, the active compounds were used as commercially finished formulation and diluted with water to the stated active compound concentration.
Curative activity against soybean rust caused by Phakopsora pachyrhizi Leaves of potted soybean seedlings were inoculated with a spore suspension of soybean rust (Phakopsora pachyrhizi). The pots were then placed in a chamber with high atmospheric humidity (90 to 95%) and at 23 to 27° C. for 24 hours. During this time, the spores germinated and the germ tubes penetrated into the leaf tissue. The infected plants were then cultivated further in a greenhouse at temperatures between 23 and 27° C. and 60 to 80% relative atmospheric humidity. […] The extent of the rust fungus development on the leaves was then determined visually in % infection.

Row | Structure (SMILES) | Growth (%) at 8 ppm C1 (Botrytis cinerea) [%] | rust fungus development on the leaves in % infection (Phakopsora pachyrhizi) [%]
1 | CC(C)(C)C(O)C(C/C=C/c1ccccc1F)n1cncn1 (stereo not drawn) | 16 | 
2 | CC(=CCC(C(O)C(C)(C)C)n1cncn1)c1ccc(F)cc1F (mixture of isomers) [I.A9] |  | 0
3 | CC(C)(C)C(O)C(C/C=C/c1ccccc1)n1cncn1 (stereo not drawn) [reference compound] | 84 | 
